The values below come from patent US20080146811A1, “Compounds and Methods For Treatment of Thrombosis” (priority 2004, published 2008).

One may read the IC50 as the concentration that inhibits the measured activity by half. Low readings indicate greater potency, high ones weaker potency.

Common to all, as to format: biochemical
Assay [1] addresses factor XIa (Homo sapiens, UniProt P03951). Description: In vitro inhibition of factor XIa.
The target of assay [2] is factor Xa (Homo sapiens, UniProt P00742). Description: In vitro inhibition of factor Xa.
The target in assay [3] is thrombin (Homo sapiens, UniProt P00734). The assay can be described thus: In vitro inhibition of thrombin.

factor Xa, sequence (P00742 235-488 limits assumed): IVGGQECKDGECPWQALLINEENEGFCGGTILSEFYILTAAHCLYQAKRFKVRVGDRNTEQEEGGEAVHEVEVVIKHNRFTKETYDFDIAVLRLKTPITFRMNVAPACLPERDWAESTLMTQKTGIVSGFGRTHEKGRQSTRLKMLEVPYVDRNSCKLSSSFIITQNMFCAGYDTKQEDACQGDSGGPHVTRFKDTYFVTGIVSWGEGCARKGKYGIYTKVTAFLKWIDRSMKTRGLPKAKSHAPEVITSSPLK
factor Xa, sequence (P00742 41-179 partner limits assumed): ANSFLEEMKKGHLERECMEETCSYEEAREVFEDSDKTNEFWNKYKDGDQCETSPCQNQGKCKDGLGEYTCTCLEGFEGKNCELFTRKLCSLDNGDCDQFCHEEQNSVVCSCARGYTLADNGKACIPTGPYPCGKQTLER
factor XIa, sequence (P03951 388-625 limits assumed): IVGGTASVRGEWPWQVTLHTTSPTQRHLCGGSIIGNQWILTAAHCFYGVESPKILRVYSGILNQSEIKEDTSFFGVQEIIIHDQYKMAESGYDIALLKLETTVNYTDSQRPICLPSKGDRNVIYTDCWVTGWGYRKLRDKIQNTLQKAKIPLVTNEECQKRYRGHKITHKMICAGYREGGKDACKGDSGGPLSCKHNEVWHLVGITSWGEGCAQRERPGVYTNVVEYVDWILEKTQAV

For the molecule `COC(=O)c1ccc(-c2cccc(O)c2)cc1-n1cc(C(=N)N)c2ccccc21` [Compound 135], the values for the IC50 in assay [1], in assay [2] and in assay [3] were 1.62 µM, 15.2 µM and 43.7 µM, respectively.
`COC(=O)c1ccc(NC(=O)c2cccnc2)cc1-n1cc(C(=N)N)c2ccccc21` [Compound 142] registered an IC50 in assay [1] of 11.3 µM.
For the molecule `N=C(N)c1cn(CC(=O)Nc2ccc(C(=O)O)cc2)c2c(/C=C/C(=O)N[C@H](C(=O)O)c3ccccc3)cccc12` [Compound 77], the IC50 in assay [1] was 0.093 µM; in assay [2], 67.8 µM; in assay [3] it was over 200 µM.
In turn, `N=C(N)c1cn(CC(=O)Nc2ccc3ncccc3c2)c2c(Br)cccc12` [Compound 34] came in with an IC50 in assay [1] of 1.39 µM.
`COC(=O)c1ccc(NC(=O)Cn2cc(C(=N)N)c3cccc(/C=C/C(=O)NC4Cc5ccccc5C4)c32)cc1` [Compound 58] returned an IC50 in assay [1] of 3.23 µM.
With `COC(=O)c1ccc(NC(=O)Cn2cc(C(=N)N)c3cccc(/C=C/C(=O)N4CCc5cc(O)c(O)cc5C4)c32)cc1` [Compound 64], the IC50 in assay [1] amounted to 1.96 µM.
On to `N=C(N)c1cn(CC(=O)Nc2cccnc2)c2c(/C=C/C(=O)Nc3cccnc3)cccc12` [Compound 54], for which the IC50 in assay [1] turned out to be 1.99 µM.
In the case of `N=C(N)c1cn(-c2cc(Br)ccc2C(=O)NCc2ccccc2)c2ccccc12` [Compound 150], the IC50 in assay [1] was found to be 280 µM.
For `COC(=O)c1ccc(-c2cccnc2)cc1-n1cc(C(=N)N)c2ccccc21` [Compound 139], the IC50 came to 3.8 µM in assay [1], 9.65 µM in assay [2] and 73.1 µM in assay [3].
Molecule `N=C(N)c1cn(C(=CC(=O)N2CCCC(C(=O)O)C2)c2ccccc2)c2ccccc12` (stereo not shown) [Compound 111] showed an IC50 in assay [1] of 13.7 µM.
In the case of `COC(=O)c1ccc(NC(=O)Cn2cc(C(=N)N)c3cccc(C(=O)NCc4ccc(O)c(O)c4)c32)cc1` [Compound 95], the values for the IC50 in assay [1], in assay [2] and in assay [3] were 0.87 µM, 82 µM and 4.2 µM, respectively.
`N=C(N)c1cn(CC(=O)Nc2cccnc2)c2cc(CCC(N)=O)ccc12` [Compound 40]: in assay [1], it took 127 µM to reach half-maximal inhibition (IC50).
Take `N=C(N)c1cn(CC(=O)Nc2cccnc2)c2c(/C=C/C(N)=O)cccc12` [Compound 47]: the values for the IC50 in assay [1] and in assay [3] were 1.77 µM and over 200 µM, respectively.
`N=C(N)c1cn(CC(=O)Nc2cc(F)cc(F)c2)c2c(Br)cccc12` [Compound 12] showed an IC50 in assay [1] of 2.51 µM. This counts as single-digit micromolar.
For the molecule `N=C(N)c1cn(-c2ccccc2[N+](=O)[O-])c2ccccc12` [Compound 151], the results for the IC50 in assay [1], in assay [2] and in assay [3] were 4.15 µM, 145 µM and 224 µM, respectively.
The molecule `N=C(N)c1cn(CC(=O)Nc2cccnc2)c2c(C(N)=O)cccc12` [Compound 84] had an IC50 in assay [1] of 1.47 µM.
As to `COC(=O)c1cccc(Oc2ccc([N+](=O)[O-])c(-n3cc(C(=N)N)c4ccccc43)c2)c1` [Compound 154], the IC50 in assay [1] was 3 µM; in assay [2] it was 54.7 µM; in assay [3] it was 20.2 µM.
The corresponding values for `COC(=O)c1ccc(Br)cc1-n1cc(C(=N)N)c2ccccc21` [Compound 131] are 1.36 µM, 35.1 µM and 60.2 µM.
`N=C(N)c1cn(-c2cc(Br)ccc2C(=O)N2CCNCC2)c2ccccc12` [Compound 144] had a concentration for half-maximal inhibition (IC50) in assay [1] of 81.7 µM.
As for `N=C(N)c1cn(CC(=O)Nc2cccnc2)c2c(Br)cccc12` [Compound 8], the concentration for half-maximal inhibition (IC50) was 0.62 µM in assay [1], 170 µM in assay [2] and over 200 µM in assay [3].
The corresponding values for `C[C@@H](CNC(=O)Cn1cc(C(=N)N)c2ccccc21)c1ccccc1` [Compound 5] are 37.1 µM, 283 µM and over 200 µM.
In turn, `CCOC(=O)C1CCCN(C(=O)Cn2cc(C(=N)N)c3cccc(C(=O)N4CCCC(C(=O)OCC)C4)c32)C1` (stereo not shown) [Compound 91] displayed a concentration for half-maximal inhibition (IC50) in assay [1] of 3.81 µM. In other words, the single-digit micromolar range.
`COC(=O)[C@H](CC(C)C)NC(=O)c1cccc2c(C(=N)N)cn(CC(=O)Nc3cccnc3)c12` [Compound 98]: the IC50 in assay [1] was 0.1 µM; in assay [3], 3.78 µM.
`N=C(N)c1cn(CC(=O)Nc2cccnc2)c2c(-c3cccc(O)c3)cccc12` [Compound 46] had an IC50 in assay [1] of 8.09 µM.
`N=C(N)c1cn(CC(=O)Nc2ccc(C(=O)O)cc2)c2c(C=CC(=O)NC(Cc3ccc(O)cc3)C(=O)O)cccc12` (stereo not shown) [Compound 70]: the values for the IC50 in assay [1], in assay [2] and in assay [3] were 0.042 µM, over 2 µM and over 200 µM, respectively.
For `N=C(N)c1cn(-c2cc(Cl)ccc2[N+](=O)[O-])c2c(C(=O)Nc3cccnc3)cccc12` [Compound 158], the IC50 in assay [1] was 1.24 µM; in assay [2], 80.8 µM; in assay [3], over 200 µM.
For `Cc1c(O)cccc1NC(=O)Cn1cc(C(=N)N)c2ccccc21` [Compound 1], in that order: 47.9 µM, 167 µM and over 200 µM.
In assay [1], `N=C(N)c1cn(C(=CC(=O)N2CCNCC2)c2ccccc2)c2ccccc12` [Compound 101] came in with an IC50 of 6.27 µM.
For the molecule `CON(C)C(=O)c1ccc(Br)cc1-n1cc(C(=N)N)c2ccccc21` [Compound 148], in assay [1], the concentration for half-maximal inhibition (IC50) was 134 µM.
